Data as given in patent US20060276465A1, “1,2-di(cyclic) substituted benzene compounds” (Eisai R&D Management Co., Ltd., priority 2003, published 2006).
Counter-ions that a name gives are not always drawn.

Experiments:
[1] = tested on: colon-infiltrating neutrophils (myeloperoxidase enzyme activity); assay: Oxazolone-induced colon neutrophil infiltration model (colon myeloperoxidase activity); format: in vivo; settings: myeloperoxidase enzyme activity inhibitory rate vs oxazolone control group; 30 mg/kg orally 30 minutes prior to intrarectal challenge; colon 4 hours after challenge; male Balb/c mice
Source text: The “di(C1-6 alkyl)amino” of Group D1 may be either symmetric or asymmetric, and as examples there may be mentioned straight-chain or branched-chain groups such as dimethylamino, methylethylamino, diethylamino, methylpropylamino, ethylpropylamino, dipropylamino, diisopropylamino, dibutylamino, diisobutylamino, di(s-butyl)amino, di(t-butyl)amino, methylpentylamino, dipentylamino, diisopentylamino, di(2-methylbutyl)amino, di(neopentyl)amino, di(1-ethylpropyl)amino, dihexylamino, methylisohexylamino, diisohexylamino, di(4-methylpentyl)amino, di(3-methylpentyl)amino, di(2-methylpentyl)amino, di(1-methylpentyl)amino, di(3,3-dimethylbutyl)amino, di(2,2-dimethylbutyl)amino, di(1,1-dimethylbutyl)amino, di(1,2-dimethylbutyl)amino, di(1,3-dimethylbutyl)amino, di(2,3-dimethylbutyl)amino, di(1-ethylbutyl)amino or di(2-ethylbutyl)amino, among which dimethylamino, methylethylamino or diethylamino is preferred, and dimethylamino is particularly preferred.
The “C2-7 alkylcarbonylamino” of Group D1 is an amino group having the aforementioned “C2-7 alkylcarbonyl” bonded thereto, and as examples there may be mentioned straight-chain or branched-chain groups such as acetylamino, ethylcarbonylamino, n-propylcarbonylamino, isopropylcarbonylamino, n-butylcarbonylamino, isobutylcarbonylamino, s-butylcarbonylamino, t-butylcarbonylamino, pentylcarbonylamino, isopentylcarbonylamino, 2-methylbutylcarbonylamino, neopentylcarbonylamino, 1-ethylpropylcarbonylamino, hexylcarbonylamino, isohexylcarbonylamino, 4-methylpentylcarbonylamino, 3-methylpentylcarbonylamino, 2-methylpentylcarbonylamino, 1-methylpentylcarbonylamino, 3,3-dimethylbutylcarbonylamino, 2,2-dimethylbutylcarbonylamino, 1,1-dimethylbutylcarbonylamino, 1,2-dimethylbutylcarbonylamino, 1,3-dimethylbutylcarbonylamino, 2,3-dimethylbutylcarbonylamino, 1-ethylbutylcarbonylamino or 2-ethylbutylcarbonylamino, among which amino groups having C2-5 alkylcarbonyl bonded thereto are preferred, and acetylamino or ethylcarbonylamino is particularly preferred.
As examples of the “3- to 8-membered cycloalkyl” of the “3- to 8-membered cycloalkyl optionally substituted with a substituent selected from Group H1” of Group D1 and the “3- to 8-membered cycloalkyl” of Group D2 (mentioned below) there may be mentioned the same ones listed above, among which cyclopropyl, cyclobutyl, cyclopentyl or cyclohexyl is preferred, cyclopropyl or cyclobutyl is more preferred, and cyclopropyl is most preferred.
As exampled of the “C2-7 alkoxycarbonyl” of Group D1 there may be mentioned the same ones listed above, among which methoxycarbonyl or ethoxycarbonyl is preferred. […]

[2] = tested on: human peripheral blood neutrophils; assay: Human peripheral blood neutrophil adhesion system (adhesion to HUVEC immobilized plate, PMA-stimulated); format: cell-based; settings: concentration inhibiting by 50% the PMA-stimulated increase in neutrophils adhered to HUVEC
Source text: As examples of the “C2-7 alkylcarbonyl” of Group W1 there may be mentioned the same ones listed above, among which C2-5 groups are preferred, and acetyl is particularly preferred.
As examples of the “C1-6 alkyl” for R^6X and R^7X there may be mentioned the same ones listed above.
As examples of the “halogen” of Group C1 there may be mentioned the same ones listed above, among which bromine, fluorine or chlorine is preferred.
As examples of the “C1-6 alkyl” of Group C1 there may be mentioned the same ones listed above, among which C1-4 groups are preferred, and methyl is particularly preferred.
As examples of the “C1-6 alkoxy” of Group C1 there may be mentioned the same ones listed above, among which C1-4 groups are preferred, and methoxy or ethoxy is particularly preferred.
As examples of the “halogen” of Group D1 and Group D2 (mentioned below) there may be mentioned the same ones listed above, among which fluorine or chlorine is preferred.
As examples of the “C1-6 alkoxy” of Group D1 and Group D2 (mentioned below) there may be mentioned the same ones listed above, among which C1-4 groups are preferred, and methoxy or ethoxy is particularly preferred.
The “C1-6 alkylthio” of Group D1 is a thio group having the aforementioned “C1-6 alkyl” bonded thereto, and as examples there may be mentioned straight-chain or branched-chain groups such as methylthio, ethylthio, propylthio, isopropylthio, […], isobutylthio, s-butylthio, t-butylthio, pentylthio, isopentylthio, 2-methylbutylthio, neopentylthio, 1-ethylpropylthio, hexylthio, isohexylthio, 4-methylpentylthio, 3-methylpentylthio, 2-methylpentylthio, 1-methylpentylthio, 3,3-dimethylbutylthio, 2,2-dimethylbutylthio, 1,1-dimethylbutylthio, 1,2-dimethylbutylthio, 1,3-dimethylbutylthio, 2,3-dimethylbutylthio, 1-ethylbutylthio or 2-ethylbutylthio, among which C1-4 groups are preferred, and methylthio or ethylthio is particularly preferred.
As examples of the “C1-6 alkylsulfonyl” of Group D1 there may be mentioned the same ones listed above, among which C1-4 groups are preferred, and methylsulfonyl or ethylsulfonyl is particularly preferred.
The “C1-6 alkylsulfinyl” of Group D1 is a sulfinyl group having the aforementioned “C1-6 alkyl” bonded thereto, as examples there may be mentioned straight-chain or branched-chain groups such as methylsulfinyl, ethylsulfinyl, propylsulfinyl, isopropylsulfinyl, […], isobutylsulfinyl, s-butylsulfinyl, t-butylsulfinyl, pentylsulfinyl, isopentylsulfinyl, 2-methylbutylsulfinyl, neopentylsulfinyl, 1-ethylpropylsulfinyl, hexylsulfinyl, isohexylsulfinyl, 4-methylpentylsulfinyl, 3-methylpentylsulfinyl, 2-methylpentylsulfinyl, 1-methylpentylsulfinyl, 3,3-dimethylbutylsulfinyl, 2,2-dimethylbutylsulfinyl, 1,1-dimethylbutylsulfinyl, 1,2-dimethylbutylsulfinyl, 1,3-dimethylbutylsulfinyl, 2,3-dimethylbutylsulfinyl, 1-ethylbutylsulfinyl or 2-ethylbutylsulfinyl, among which C1-4 groups are preferred, and methylsulfinyl or ethylsulfinyl is particularly preferred.

[3] = tested on: Jurkat cells; assay: Jurkat cell adhesion system (adhesion to immobilized human fibronectin, PMA-stimulated); format: cell-based; settings: concentration inhibiting by 50% the PMA-stimulated increase in adhered Jurkat cells on human fibronectin
Source text: The “C1-6 haloalkyl” of Group A1 and Group A2 (mentioned below) is aforementioned “C1-6 alkyl” having 1-6 aforementioned “halogen” bonded thereto, as examples there may be mentioned straight-chain or branched-chain alkyl groups such as methyl, ethyl, n-propyl, isopropyl, n-butyl, isobutyl, s-butyl, t-butyl, pentyl, isopentyl, 2-methylbutyl, neopentyl, 1-ethylpropyl, hexyl, isohexyl, 4-methylpentyl, 3-methylpentyl, 2-methylpentyl, 1-methylpentyl, 3,3-dimethylbutyl, 2,2-dimethylbutyl, 1,1-dimethylbutyl, 1,2-dimethylbutyl, 1,3-dimethylbutyl, 2,3-dimethylbutyl, 1-ethylbutyl or 2-ethylbutyl, having fluorine or chlorine bonded thereto, among which C1-4 alkyl having 1 to 3 fluorine or chlorine bonded thereto is preferred, and trifluoromethyl is particularly preferred.
As examples of the “C2-7 alkylene”, where C2-7 alkylene is permissible only in the case that a spiro union is formed together with the substituted 5- to 10-membered cycloalkyl or the substituted 5- to 10-membered cycloalkenyl, of Group A1 and Group A2 (mentioned below), there may be mentioned straight-chain or branched-chain groups such as 1,2-ethylene, trimethylene, propylene, ethylethylene, tetramethylene, pentamethylene, hexamethylene or heptamethylene, among which 1,2-ethylene, trimethylene, tetramethylene or pentamethylene is preferred, and 1,2-ethylene, tetramethylene or pentamethylene is particularly preferred.
As examples of the “halogen” of Group W1 there may be mentioned the same ones listed above, among which fluorine or chlorine is preferred.
As examples of the “C1-6 alkyl” of Group W1 there may be mentioned the same ones listed above, among which C1-4 groups are preferred, and methyl or ethyl is particularly preferred.
The “C2-7 alkoxyalkyl” of Group W1 is aforementioned “C1-6 alkyl” having the aforementioned “C1-6 alkoxy” bonded thereto, of 2 to 7 carbon (total number of carbon), and as examples there may be mentioned methoxymethyl, methoxyethyl, ethoxyethyl, methoxypropyl or propoxyethyl, among which methoxymethyl is preferred.
As examples of the “C1-6 alkoxy” of the “C1-6 alkoxy optionally substituted with a substituent selected from Group T1” of Group W1 there may be mentioned the same ones listed above, among which C1-4 groups are preferred, and methoxy, ethoxy, isopropoxy or propoxy is particularly preferred.

IC50 [2] [µM]	IC50 [3] [µM]	Compound	Ihibitory Rate (%) [1] [%]
11	2.9	CCCCN1CCN(c2c(NC3CCOCC3)cccc2C2=CCC(C(C)(C)C)CC2)CC1.Cl (racemic) [Example 5, [3-(4-t-Butylcyclohex-1-enyl)-2-(4-butylpiperazin-1-yl)phenyl](tetrahydropyran-4-yl)amine hydrochloride]	3.0
11.7	2.9	CCCCN1CCN(c2cc3c(cc2C2CCC(C(C)(C)C)CC2)N(C)C(=O)CO3)CC1 (centres unmarked) [Example 6, 6-(4-t-Butylcyclohexyl)-7-(4-butylpiperazin-1-yl)-4-methyl-4H-benzo[1,4]oxazin-3-one]	48.0
17.4	4.9	CCCCN1CCN(c2cc3c(cc2C2CCC(C(C)(C)C)CC2)N(C)CCO3)CC1.Cl (centres unmarked) [Example 7, 6-(4-t-Butylcyclohexyl)-7-(4-butylpiperazin-1-yl)-4-methyl-3,4-dihydro-2H-benzo[1,4]oxazine hydrochloride]	24.0
11.8	4.7	CCCCN1CCN(c2cc3c(cc2C2CC(C)(C)CC(C)(C)C2)OCCO3)CC1 [Example 15, 1-Butyl-4-[7-(3,3,55-tetramethylcyclohexyl)-2,3-dihydrobenzo[1,4]dioxin-6-yl]piperazine hydrochloride]	
6	4	CCCCN1CCN(c2ccc(N3CCC4(CC3)OCCO4)cc2C2CCC(C(C)(C)C)CC2)CC1.Cl (centres unmarked) [Example 134, 8-{3-(4-t-Butylcyclohexyl)-4-(4-butylpiperazin-1-ylphenyl}-1,4-dioxa-8-aza-spiro [4.5]decane hydrochloride]	
		CCCCN1CCN(c2ccc(N3CCC4(CC3)OCCO4)cc2C2CCC(C(C)(C)C)CC2)CC1.Cl (centres unmarked) [Example 134]	18.0
